Results from patent US8609680B2, “2,3-dihydro-1H-inden-1-yl-2,7-diazaspiro[3.5] nonane derivatives” (Pfizer Inc., priority 2010, dated 2013).
Read-outs that look alike come from different tables or passages of the source.

Key:
human GHSR1a [1] = target: T1, human GHSR1a (Homo sapiens, UniProt Q92847); experiment: Human Ghrelin SPA Binding Assay
T1 construct: expressed in transfected cells; host or cells: HEK293 Tetracycline-Inducible cell line, used as membranes
Text: The SPA format was utilized for high throughput screening of test compounds and filter binding served for more comprehensive binding characterization.
Human Ghrelin SPA Binding Assay

human GHSR1a [2] = target: T1, human GHSR1a; experiment: Human Ghrelin Functional Assay (DELFIA GTP-binding assay); format: biochemical; details: GTP-Europium exchange, human GHSR1a membranes, with and without ghrelin at EC80
Protocol: Human Ghrelin Functional Assay
To measure the ability of test compounds in the present invention to modulate the activity of human GHSR1a (agonize, antagonize, partially agonize, inversely agonize), a DELFIA GTP-binding assay (Perkin Elmer, AD0260 and AD0261) is performed. The assay monitors the ligand-dependent exchange of GDP for GTP. GPCR activation results in an increase in fluorescence as receptor-bound GDP is replaced by Europium-labeled GTP.
Ghrelin functional assays are performed in a final volume of 39.5 μl containing 720 ng human GHSR1a (HEK293 Tetracycline-Inducible cell line expressing the human growth secretagogue receptor la, prepared as membranes), 9 nM GTP-Europium and varying concentrations of test compound or vehicle. To test for receptor antagonism, membranes are incubated in the presence of agonist ghrelin (Anaspec, 24158) at the EC80 concentration, plus test compound or vehicle.
Briefly, test compounds are prepared at room temperature in 384-well plates (Matrix, 4340). […] Samples are then transferred as 6 μl to 384-well filter plates (Pall, 5071) containing 30 μl of 24 μg/ml hGHSR1a membrane and 0.35 mg/ml saponin (Perkin Elmer, AD0261) in basal buffer.
The mixture is incubated 24 minutes at room temperature with gentle shaking, followed by the addition of 3.5 μl of 100 nM GTP-Europium in 50 mM HEPES, pH 7.4. Samples are shielded from light and incubated for 90 minutes further at room temperature with gentle shaking. The reactions are suctioned dry with vacuum, washed three times with 75 μl ice cold 1× GTP Wash Solution (Perkin Elmer, AD0261), and immediately read on the Envision 2101 Multilabel Reader (Perkin Elmer) using excitation filter 320 nm and emission filter 615 nm.

[3] = SPA format, [125I] ghrelin displacement, human GHSR1a membranes from HEK293 Tetracycline-Inducible cell line
[4] = SPA format, [125I] ghrelin displacement, human GHSR1a membranes, Ki=IC50/(1+[ligand]/Kd)

T1 sequence (Q92847 whole entry): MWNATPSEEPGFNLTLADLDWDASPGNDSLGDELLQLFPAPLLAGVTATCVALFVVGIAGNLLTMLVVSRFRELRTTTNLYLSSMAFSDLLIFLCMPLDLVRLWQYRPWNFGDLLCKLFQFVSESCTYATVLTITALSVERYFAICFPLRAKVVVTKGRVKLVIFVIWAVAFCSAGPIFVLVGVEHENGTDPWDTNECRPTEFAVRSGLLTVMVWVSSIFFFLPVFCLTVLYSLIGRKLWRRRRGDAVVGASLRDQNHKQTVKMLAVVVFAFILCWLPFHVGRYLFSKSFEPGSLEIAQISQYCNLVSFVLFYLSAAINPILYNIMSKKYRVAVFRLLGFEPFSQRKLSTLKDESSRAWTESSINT

5-{(1R)-1-[7-(2,3-dihydro[1,4]dioxino[2,3-b]pyridin-6-yl)acetyl)-2,7-diazaspiro[3.5]non-2-yl]-2,3-dihydro-1H-inden-5-yl}pyridine-2-carboxamide [Example 9A]
IC50 (human GHSR1a [1]; [3]): 15.9 nM | Ki (human GHSR1a [1]; [4]): 13.9 nM | functional comment (human GHSR1a [2]): inverse agonist

COc1ccc(CC(=O)N2CCC3(CC2)CN(C2CCc4cc(-c5cc(C#N)ccn5)ccc42)C3)nc1 (racemic) [Example 2C]
IC50 (human GHSR1a [1]): 13.7 nM | Ki (human GHSR1a [1]): 38 nM | functional comment (human GHSR1a [2]): inverse agonist

COc1ccc(CC(=O)N2CCC3(CC2)CN(C2CCc4cc(-c5cc(OC)ncn5)ccc42)C3)nc1 (racemic) [Example 2F]
IC50 (human GHSR1a [1]): 35.9 nM | Ki (human GHSR1a [1]): 50.2 nM | functional comment (human GHSR1a [2]): inverse agonist

COc1ccc(CC(=O)N2CCC3(CC2)CN(C2CCc4cc(-c5cnccn5)ccc42)C3)nc1 (racemic) [Example 2H]
IC50 (human GHSR1a [1]): 92.2 nM | Ki (human GHSR1a [1]): 218 nM | functional comment (human GHSR1a [2]): inverse agonist

COc1ccc(CC(=O)N2CCC3(CC2)CN(C2CCc4cc(-c5nc(C)cc(C)n5)ccc42)C3)nc1 (racemic) [Example 2I]
IC50 (human GHSR1a [1]): 15.3 nM | Ki (human GHSR1a [1]): 51.2 nM | functional comment (human GHSR1a [2]): inverse agonist

COc1ccc(CC(=O)N2CCC3(CC2)CN(C2CCc4cc(-c5cccc(C)n5)ccc42)C3)nc1 (racemic) [Example 2J]
IC50 (human GHSR1a [1]): 22 nM | functional comment (human GHSR1a [2]): inverse agonist

COc1ccc(CC(=O)N2CCC3(CC2)CN(C2CCc4cc(-c5ccc(OC)cn5)ccc42)C3)nc1 (stereo not drawn) [Example 2A, 7-[(5-Methoxypyridin-2-yl)acetyl]-2-[5-(5-methoxypyridin-2-yl)-2,3-dihydro-1H-inden-1-yl]-2,7-diazaspiro[3.5]nonane]
IC50 (human GHSR1a [1]): 22.7 nM | Ki (human GHSR1a [1]): 91.3 nM | functional comment (human GHSR1a [2]): inverse agonist

CCc1cnc(-c2ccc3c(c2)CC[C@H]3N2CC3(CCN(C(=O)Cc4ccc(OC)cn4)CC3)C2)nc1 [Example 3A, 2-[(1R)-5-(5-Ethylpyrimidin-2-yl)-2,3-dihydro-1H-inden-1-yl]-7-[(5-methoxypyridin-2-yl)acetyl]-2,7-diazaspiro[3.5]nonane]
IC50 (human GHSR1a [1]): 9.46 nM | Ki (human GHSR1a [1]; [4]): 9.03 nM | functional comment (human GHSR1a [2]): inverse agonist

CCc1cc(-c2ccc3c(c2)CC[C@H]3N2CC3(CCN(C(=O)Cc4ccc(OC)cn4)CC3)C2)ncn1 [Example 3AA]
IC50 (human GHSR1a [1]): 9.8 nM | Ki (human GHSR1a [1]): 8.59 nM | functional comment (human GHSR1a [2]): inverse agonist

COc1ccc(CC(=O)N2CCC3(CC2)CN([C@@H]2CCc4cc(-c5ncco5)ccc42)C3)cc1 [Example 3AD]
IC50 (human GHSR1a [1]): 19.5 nM | Ki (human GHSR1a [1]): 15.5 nM | functional comment (human GHSR1a [2]): inverse agonist

O=C(Cc1ccc(C2CC2)cn1)N1CCC2(CC1)CN([C@@H]1CCc3cc(-c4ncccn4)ccc31)C2 [Example 3AF]
IC50 (human GHSR1a [1]): 7.41 nM | Ki (human GHSR1a [1]): 6.13 nM | functional comment (human GHSR1a [2]): inverse agonist

Cc1cc(C)nc(-c2ccc3c(c2)CC[C@H]3N2CC3(CCN(C(=O)Cc4cn5nc(C)sc5n4)CC3)C2)n1 [Example 3AL]
IC50 (human GHSR1a [1]): 7.73 nM | Ki (human GHSR1a [1]): 6.91 nM | functional comment (human GHSR1a [2]): inverse agonist

Cc1cnc(-c2ccc3c(c2)CC[C@H]3N2CC3(CCN(C(=O)Cc4cn5nc(C)sc5n4)CC3)C2)nc1 [Example 3AN]
IC50 (human GHSR1a [1]): 16.6 nM | Ki (human GHSR1a [1]): 14.9 nM | functional comment (human GHSR1a [2]): inverse agonist

Cc1cc(-c2ccc3c(c2)CC[C@H]3N2CC3(CCN(C(=O)Cc4cn5nc(C)sc5n4)CC3)C2)nc(C)n1 [Example 3AO]
IC50 (human GHSR1a [1]): 16.8 nM | Ki (human GHSR1a [1]): 15.1 nM | functional comment (human GHSR1a [2]): inverse agonist

Cc1ccn2cc(CC(=O)N3CCC4(CC3)CN([C@@H]3CCc5cc(-c6cc(C#N)ncn6)ccc53)C4)nc2c1 [Example 3AP]
IC50 (human GHSR1a [1]): 27.2 nM | Ki (human GHSR1a [1]): 24.4 nM | functional comment (human GHSR1a [2]): inverse agonist

Cc1cc(-c2ccc3c(c2)CC[C@H]3N2CC3(CCN(C(=O)Cc4cn5c(C)c(C)sc5n4)CC3)C2)ncn1 [Example 3AR]
IC50 (human GHSR1a [1]): 33.9 nM | Ki (human GHSR1a [1]): 30.3 nM | functional comment (human GHSR1a [2]): inverse agonist

Cc1cc(-c2ccc3c(c2)CC[C@H]3N2CC3(CCN(C(=O)Cc4ccc5c(n4)OCCO5)CC3)C2)ncn1 [Example 3D]
IC50 (human GHSR1a [1]): 10.2 nM | Ki (human GHSR1a [1]): 8.91 nM | functional comment (human GHSR1a [2]): inverse agonist

Cc1nccc(-c2ccc3c(c2)CC[C@H]3N2CC3(CCN(C(=O)Cc4ccc5c(n4)OCCO5)CC3)C2)n1 [Example 3E, 6-(2-{2-[(1R)-5-(2-methylpyrimidin-4-yl)-2,3-dihydro-1H-inden-1-yl]-2,7-diazaspiro[3.5]non-7-yl}-2-oxoethyl)-2,3-dihydro[1,4]dioxino[2,3-b]pyridine]
IC50 (human GHSR1a [1]): 20.7 nM | Ki (human GHSR1a [1]): 18.5 nM | functional comment (human GHSR1a [2]): inverse agonist

Cc1cc(-c2ccc3c(c2)CC[C@H]3N2CC3(CCN(C(=O)Cc4cn5cc(C)sc5n4)CC3)C2)ncn1 [Example 3F]
Ki (human GHSR1a [1]): 4.37 nM | IC50 (human GHSR1a [1]; [3]): 5.02 nM | functional comment (human GHSR1a [2]): inverse agonist

COc1ccc(CC(=O)N2CCC3(CC2)CN([C@@H]2CCc4cc(-c5ncccn5)ccc42)C3)nc1 [Example 3G]
IC50 (human GHSR1a [1]): 21.2 nM | functional comment (human GHSR1a [2]): inverse agonist

COc1ccc(CC(=O)N2CCC3(CC2)CN([C@@H]2CCc4cc(-c5ncc(C)cn5)ccc42)C3)nc1 [Example 3H]
IC50 (human GHSR1a [1]): 9.51 nM | Ki (human GHSR1a [1]; [4]): 9.17 nM | functional comment (human GHSR1a [2]): inverse agonist

Cc1ccc(CC(=O)N2CCC3(CC2)CN([C@@H]2CCc4cc(-c5ncccn5)ccc42)C3)nc1 [Example 3I]
IC50 (human GHSR1a [1]): 31 nM | Ki (human GHSR1a [1]; [4]): 27.8 nM | functional comment (human GHSR1a [2]): inverse agonist

Cc1cc(-c2ccc3c(c2)CC[C@H]3N2CC3(CCN(C(=O)Cc4cn5ccccc5n4)CC3)C2)ncn1 [Example 3L]
IC50 (human GHSR1a [1]): 23 nM | Ki (human GHSR1a [1]): 20.2 nM | functional comment (human GHSR1a [2]): inverse agonist

COc1ccc(CC(=O)N2CCC3(CC2)CN([C@@H]2CCc4cc(-c5ccn(C)n5)ccc42)C3)nc1 [Example 3N]
IC50 (human GHSR1a [1]): 82.6 nM | Ki (human GHSR1a [1]): 71.3 nM | functional comment (human GHSR1a [2]): inverse agonist

COc1ccc(CC(=O)N2CCC3(CC2)CN([C@@H]2CCc4cc(-n5cc(C)cn5)ccc42)C3)nc1 [Example 8A, 7-[(5-methoxypyridin-2-yl)acetyl]-2-[(1R)-5-(4-methyl-1H-pyrazol-1-yl)-2,3-dihydro-1H-inden-1-yl]-2,7-diazaspiro[3.5]nonane]
IC50 (human GHSR1a [1]): 29 nM | Ki (human GHSR1a [1]): 24.7 nM

COc1ccc(CC(=O)N2CCC3(CC2)CN([C@@H]2CCc4cc(-n5cc(C)cn5)ccc42)C3)cc1 [Example 8B]
IC50 (human GHSR1a [1]): 10.5 nM | Ki (human GHSR1a [1]): 8.97 nM

COc1ccc(CC(=O)N2CCC3(CC2)CN([C@@H]2CCc4cc(-n5cccn5)ccc42)C3)nc1 [Example 8C]
IC50 (human GHSR1a [1]): 82.3 nM | Ki (human GHSR1a [1]): 66.4 nM

COc1ccc(CC(=O)N2CCC3(CC2)CN([C@@H]2CCc4cc(-c5ccc(C(N)=O)nc5)ccc42)C3)nc1 [Example 9B]
IC50 (human GHSR1a [1]): 55.2 nM | Ki (human GHSR1a [1]): 47.5 nM

Cc1ccc(CC(=O)N2CCC3(CC2)CN([C@@H]2CCc4cc(-c5ccc(C(N)=O)nc5)ccc42)C3)nc1 [Example 9C]
IC50 (human GHSR1a [1]): 117 nM | Ki (human GHSR1a [1]): 102 nM

Cc1cn2cc(CC(=O)N3CCC4(CC3)CN([C@@H]3CCc5cc(-c6ccc(C(N)=O)nc6)ccc53)C4)nc2s1 [Example 9D]
IC50 (human GHSR1a [1]): 12.2 nM | Ki (human GHSR1a [1]): 10.6 nM

NC(=O)c1ccc(-c2ccc3c(c2)CC[C@H]3N2CC3(CCN(C(=O)Cc4cn5ccccc5n4)CC3)C2)cn1 [Example 9E]
IC50 (human GHSR1a [1]): 33.7 nM | Ki (human GHSR1a [1]): 29.2 nM

COc1ccc(CC(=O)N2CCC3(CC2)CN([C@@H]2CCc4cc(-c5cnc(C(N)=O)cn5)ccc42)C3)nc1 [Example 10A, 5-[(1R)-1-{7-[(5-methoxypyridin-2-yl)acetyl]-2,7-diazaspiro[3.5]non-2-yl}-2,3-dihydro-1H-inden-5-yl]pyrazine-2-carboxamide]
IC50 (human GHSR1a [1]): 62.6 nM | Ki (human GHSR1a [1]): 55.5 nM

Cc1ccn2cc(CC(=O)N3CCC4(CC3)CN([C@@H]3CCc5cc(-c6cnc(C(N)=O)cn6)ccc53)C4)nc2c1 [Example 10B]
IC50 (human GHSR1a [1]): 23.4 nM | Ki (human GHSR1a [1]): 20.3 nM

NC(=O)c1cnc(-c2ccc3c(c2)CC[C@H]3N2CC3(CCN(C(=O)Cc4cn5ccccc5n4)CC3)C2)cn1 [Example 10C]
IC50 (human GHSR1a [1]): 93.1 nM | Ki (human GHSR1a [1]): 80.8 nM

COc1ccc(CC(=O)N2CCC3(CC2)CN([C@@H]2CCc4cc(-c5cc(C(N)=O)ncn5)ccc42)C3)nc1 [Example 10D]
IC50 (human GHSR1a [1]): 94.7 nM | Ki (human GHSR1a [1]): 82.9 nM

CCc1ccc(CC(=O)N2CCC3(CC2)CN([C@@H]2CCc4cc(-c5cnc(C(N)=O)cn5)ccc42)C3)nc1 [Example 10H]
IC50 (human GHSR1a [1]): 141 nM | Ki (human GHSR1a [1]): 123 nM

COc1ccc(CC(=O)N2CCC3(CC2)CN([C@@H]2CCc4cc(-c5ccc(C(N)=O)cn5)ccc42)C3)nc1 [Example 11A, 6-((R)-1-{7-[2-(5-Methoxy-pyridin-2-yl)-acetyl]-2,7-diaza-spiro[3.5]non-2-yl}indan-5-yl)-nicotinamide]
IC50 (human GHSR1a [1]): 33.3 nM | Ki (human GHSR1a [1]): 28.6 nM
